According to ChEMBL document CHEMBL2440076, “New triarylpyrazoles as broad-spectrum anticancer agents: design, synthesis, and biological evaluation” (Eur J Med Chem, 2013):

Legend:
[1] = test system: U-251; experiment: Growth inhibition of human U251 cells after 48 hrs by sulforhodamine B assay; format: functional; details: U-251, 48 h
[2] = test system: SF-539; experiment: Growth inhibition of human SF539 cells after 48 hrs by sulforhodamine B assay; format: functional; details: SF-539, 48 h
[3] = test system: SK-MEL-2; experiment: Growth inhibition of human SK-MEL-2 cells after 48 hrs by sulforhodamine B assay; format: functional; details: SK-MEL-2, 48 h
[4] = test system: OVCAR-4; experiment: Growth inhibition of human OVCAR4 cells after 48 hrs by sulforhodamine B assay; format: functional; details: OVCAR-4, 48 h
[5] = test system: NCI-H226; experiment: Growth inhibition of human NCI-H226 cells assessed as cell growth at 10 uM after 48 hrs by sulforhodamine B assay; format: functional; details: NCI-H226, 48 h, read-out: Activity
[6] = test system: MDA-MB-468; experiment: Growth inhibition of human MDA-MB-468 cells after 48 hrs by sulforhodamine B assay; format: functional, cell-based; details: MDA-MB-468, 48 h; for CC50: read-out: LC50 (the source's name)
[7] = test system: SNB-75; experiment: Growth inhibition of human SNB75 cells after 48 hrs by sulforhodamine B assay; format: functional; details: SNB-75, 48 h
[8] = test system: SK-MEL-5; experiment: Growth inhibition of human SK-MEL-5 cells assessed as cell growth at 10 uM after 48 hrs by sulforhodamine B assay; format: functional; details: SK-MEL-5, 48 h, read-out: Activity
[9] = test system: NCI-H522; experiment: Growth inhibition of human NCI-H522 cells assessed as cell growth at 10 uM after 48 hrs by sulforhodamine B assay; format: functional; details: NCI-H522, 48 h, read-out: Activity
[10] = test system: SF-268; experiment: Growth inhibition of human SF268 cells after 48 hrs by sulforhodamine B assay; format: functional; details: SF-268, 48 h; for CC50: read-out: LC50 (the source's name)
[11] = test system: OVCAR-3; experiment: Growth inhibition of human OVCAR3 cells assessed as cell growth at 10 uM after 48 hrs by sulforhodamine B assay; format: functional; details: OVCAR-3, 48 h, read-out: Activity
[12] = test system: KM12; experiment: Growth inhibition of human KM12 cells assessed as cell growth at 10 uM after 48 hrs by sulforhodamine B assay; format: functional; details: KM12, 48 h, read-out: Activity
[13] = test system: 786-0; experiment: Growth inhibition of human 786-0 cells assessed as cell growth at 5X10'-5 M after 48 hrs by sulforhodamine B assay; format: functional; details: 786-0, 48 h, read-out: Activity
[14] = test system: HOP-92; experiment: Growth inhibition of human HOP92 cells assessed as cell growth at 5X10'-9 M after 48 hrs by sulforhodamine B assay; format: functional; details: HOP-92, 48 h, read-out: Activity
[15] = test system: HT-29; experiment: Growth inhibition of human HT-29 cells assessed as cell growth at 5X10'-7 M after 48 hrs by sulforhodamine B assay; format: functional; details: HT-29, 48 h, read-out: Activity
[16] = test system: MDA-MB-468; experiment: Growth inhibition of human MDA-MB-468 cells assessed as cell growth at 5X10'-7 M after 48 hrs by sulforhodamine B assay; format: functional; details: MDA-MB-468, 48 h, read-out: Activity
[17] = test system: SF-295; experiment: Growth inhibition of human SF295 cells assessed as cell growth at 5X10'-6 M after 48 hrs by sulforhodamine B assay; format: functional; details: SF-295, 48 h, read-out: Activity
[18] = test system: MDA-MB-231; experiment: Growth inhibition of human MDA-MB-231 cells assessed as cell growth at 5X10'-9 M after 48 hrs by sulforhodamine B assay; format: functional; details: MDA-MB-231, 48 h, read-out: Activity
[19] = test system: SK-MEL-5; experiment: Growth inhibition of human SK-MEL-5 cells assessed as cell growth at 5X10'-9 M after 48 hrs by sulforhodamine B assay; format: functional; details: SK-MEL-5, 48 h, read-out: Activity
[20] = test system: HCT-116; experiment: Growth inhibition of human HCT116 cells assessed as cell growth at 5X10'-7 M after 48 hrs by sulforhodamine B assay; format: functional; details: HCT-116, 48 h, read-out: Activity
[21] = test system: ACHN; experiment: Growth inhibition of human ACHN cells assessed as cell growth at 5X10'-8 M after 48 hrs by sulforhodamine B assay; format: functional; details: read-out: Activity
[22] = test system: SR; experiment: Growth inhibition of human SR cells assessed as cell growth at 5X10'-8 M after 48 hrs by sulforhodamine B assay; format: functional; details: read-out: Activity
[23] = test system: SN12C; experiment: Growth inhibition of human SN12C cells assessed as cell growth at 5X10'-8 M after 48 hrs by sulforhodamine B assay; format: functional; details: read-out: Activity
[24] = test system: OVCAR-3; experiment: Growth inhibition of human OVCAR3 cells assessed as cell growth at 5X10'-9 M after 48 hrs by sulforhodamine B assay; format: functional; details: OVCAR-3, 48 h, read-out: Activity
[25] = test system: HL-60(TB); experiment: Growth inhibition of human HL-60(TB) cells assessed as cell growth at 5X10'-6 M after 48 hrs by sulforhodamine B assay; format: functional; details: HL-60, 48 h, read-out: Activity
[26] = test system: MDA-MB-231; experiment: Growth inhibition of human MDA-MB-231 cells assessed as cell growth at 5X10'-7 M after 48 hrs by sulforhodamine B assay; format: functional; details: MDA-MB-231, 48 h, read-out: Activity
[27] = test system: LOX IMVI; experiment: Growth inhibition of human LOXIMVI cells assessed as cell growth at 5X10'-7 M after 48 hrs by sulforhodamine B assay; format: functional; details: read-out: Activity
[28] = test system: KM12; experiment: Growth inhibition of human KM12 cells assessed as cell growth at 5X10'-9 M after 48 hrs by sulforhodamine B assay; format: functional; details: KM12, 48 h, read-out: Activity
[29] = test system: HT-29; experiment: Growth inhibition of human HT-29 cells assessed as cell growth at 5X10'-6 M after 48 hrs by sulforhodamine B assay; format: functional; details: HT-29, 48 h, read-out: Activity
[30] = test system: K562; experiment: Growth inhibition of human K562 cells assessed as cell growth at 5X10'-8 M after 48 hrs by sulforhodamine B assay; format: functional; details: K562, 48 h, read-out: Activity
[31] = test system: SNB-75; experiment: Growth inhibition of human SNB75 cells assessed as cell growth at 5X10'-9 M after 48 hrs by sulforhodamine B assay; format: functional; details: SNB-75, 48 h, read-out: Activity
[32] = test system: UACC-62; experiment: Growth inhibition of human UACC62 cells assessed as cell growth at 5X10'-6 M after 48 hrs by sulforhodamine B assay; format: functional; details: UACC-62, 48 h, read-out: Activity
[33] = test system: K562; experiment: Growth inhibition of human K562 cells assessed as cell growth at 5X10'-9 M after 48 hrs by sulforhodamine B assay; format: functional; details: K562, 48 h, read-out: Activity
[34] = test system: CCRF-CEM; experiment: Growth inhibition of human CCRF-CEM cells assessed as cell growth at 5X10'-9 M after 48 hrs by sulforhodamine B assay; format: functional; details: read-out: Activity
[35] = test system: SK-OV-3; experiment: Growth inhibition of human SKOV3 cells assessed as cell growth at 5X10'-5 M after 48 hrs by sulforhodamine B assay; format: functional; details: SK-OV-3, 48 h, read-out: Activity
[36] = test system: SF-539; experiment: Growth inhibition of human SF539 cells assessed as cell growth at 5X10'-5 M after 48 hrs by sulforhodamine B assay; format: functional; details: SF-539, 48 h, read-out: Activity

## COc1cc(-c2nn(-c3cccc(NC(=O)Nc4ccc(Cl)c(C(F)(F)F)c4)c3)cc2-c2ccncc2)ccc1Cl
[1]
  GI50: 0.985 µM
  LC50 (concentration killing 50% of cells): 24.7 µM
  TGI: 4.18 µM
[2]
  GI50: 1.65 µM
  LC50 (concentration killing 50% of cells): 17.5 µM
  TGI: 6.34 µM
[3]
  GI50: 1.01 µM
  LC50 (50% lethal concentration): 17.5 µM
  TGI: 2.58 µM
[4]
  GI50: 1.29 µM
  LC50 (concentration killing 50% of cells): > 32.5 µM
  TGI: 25.6 µM
[5]
  growth at 10 µM: 12.1%
[6]
  GI50: 0.833 µM
  IC50: 0.83 µM
  TGI: 4.42 µM
  CC50: > 32.5 µM
[7]
  GI50: 1.28 µM
  LC50 (lethal concentration, 50% net cell kill): > 32.5 µM
  TGI: 10.3 µM
[8]
  growth at 10 µM: -65.3%
[9]
  growth at 10 µM: -13.9%
[10]
  GI50: 1.46 µM
  TGI: 9.14 µM
  CC50: > 32.5 µM
[11]
  growth at 10 µM: -12.4%
[12]
  growth at 10 µM: 2.88%

## O=C(Nc1cccc(-n2cc(-c3ccncc3)c(-c3ccc(Cl)c(O)c3)n2)c1)Nc1cc(C(F)(F)F)cc(C(F)(F)F)c1
[1]
  GI50: 0.463 µM
  LC50 (concentration killing 50% of cells): 2.8 µM
  TGI: 1.17 µM
[2]
  GI50: 0.765 µM
  LC50 (concentration killing 50% of cells): 2.89 µM
  TGI: 1.49 µM
[13]
  growth at 50 µM: -71%
[14]
  growth at 0.005 µM: 83%
[15]
  growth at 0.5 µM: 72%
[3]
  GI50: 1.25 µM
  LC50 (50% lethal concentration): 14.1 µM
  TGI: 3.03 µM
[16]
  growth at 0.5 µM: 37%
[4]
  GI50: 0.849 µM
  LC50 (concentration killing 50% of cells): 23.9 µM
  TGI: 5.01 µM
[17]
  growth at 5 µM: -57%
[5]
  growth at 10 µM: 1.17%
[18]
  growth at 0.005 µM: 94%
[6]
  GI50: 0.265 µM
  IC50: 0.27 µM
  TGI: 2.66 µM
  CC50: 37.1 µM
[19]
  growth at 0.005 µM: 104%
[7]
  GI50: 0.877 µM
  LC50 (lethal concentration, 50% net cell kill): 7.03 µM
  TGI: 2.18 µM
[20]
  growth at 0.5 µM: 46%
[21]
  growth at 0.05 µM: 96%
[22]
  growth at 0.05 µM: 102%
[8]
  growth at 10 µM: -94.7%
[23]
  growth at 0.05 µM: 96%
[9]
  growth at 10 µM: -50.1%
[24]
  growth at 0.005 µM: 109%
[25]
  growth at 5 µM: 3%
[26]
  growth at 0.5 µM: 74%
[27]
  growth at 0.5 µM: 76%
[28]
  growth at 0.005 µM: 105%
[29]
  growth at 5 µM: -54%
[10]
  GI50: 0.846 µM
  TGI: 2.69 µM
  CC50: 20.5 µM
[30]
  growth at 0.05 µM: 108%
[31]
  growth at 0.005 µM: 88%
[32]
  growth at 5 µM: -38%
[33]
  growth at 0.005 µM: 105%
[34]
  growth at 0.005 µM: 95%
[11]
  growth at 10 µM: -67.5%
[35]
  growth at 50 µM: -49%
[36]
  growth at 50 µM: -96%
[12]
  growth at 10 µM: -50.3%

## O=C(Nc1cccc(-n2cc(-c3ccncc3)c(-c3ccc(Cl)c(O)c3)n2)c1)c1ccc(N2CCOCC2)c(C(F)(F)F)c1
[1]
  GI50: 1.85 µM
  LC50 (concentration killing 50% of cells): > 50 µM
  TGI: 24.9 µM
[2]
  GI50: 1.37 µM
  LC50 (concentration killing 50% of cells): > 50 µM
  TGI: 17.3 µM
[13]
  growth at 50 µM: -53%
[14]
  growth at 0.005 µM: 85%
[15]
  growth at 0.5 µM: 102%
[3]
  GI50: 2.89 µM
  LC50 (50% lethal concentration): > 50 µM
  TGI: 15.3 µM
[16]
  growth at 0.5 µM: 92%
[4]
  GI50: 39.2 µM
  LC50 (concentration killing 50% of cells): > 50 µM
  TGI: > 50 µM
[17]
  growth at 5 µM: 13%
[5]
  growth at 10 µM: 107%
[18]
  growth at 0.005 µM: 96%
[6]
  GI50: 7.04 µM
  IC50: 7.04 µM
  TGI: 26.6 µM
  CC50: > 50 µM
[19]
  growth at 0.005 µM: 101%
[7]
  GI50: 1.3 µM
  LC50 (lethal concentration, 50% net cell kill): > 50 µM
  TGI: > 50 µM
[20]
  growth at 0.5 µM: 99%
[21]
  growth at 0.05 µM: 99%
[22]
  growth at 0.05 µM: 99%
[8]
  growth at 10 µM: 50.8%
[23]
  growth at 0.05 µM: 98%
[9]
  growth at 10 µM: 39.6%
[24]
  growth at 0.005 µM: 98%
[25]
  growth at 5 µM: 39%
[26]
  growth at 0.5 µM: 67%
[27]
  growth at 0.5 µM: 92%
[28]
  growth at 0.005 µM: 94%
[29]
  growth at 5 µM: 79%
[10]
  GI50: 5.58 µM
  TGI: > 50 µM
  CC50: > 50 µM
[30]
  growth at 0.05 µM: 100%
[31]
  growth at 0.005 µM: 94%
[32]
  growth at 5 µM: 39%
[33]
  growth at 0.005 µM: 96%
[34]
  growth at 0.005 µM: 98%
[11]
  growth at 10 µM: 56%
[35]
  growth at 50 µM: 36%
[36]
  growth at 50 µM: -18%
[12]
  growth at 10 µM: 30.6%
